Experimental data as given in PMC10828645 (Heliyon, 2024).
Like-named read-outs stand apart in the source and are kept apart here.

How the values were obtained:
[1] = Ionized fraction at pH 7.4 calculated from pKa; conditions: for Ionized fraction fcation: pH 7.4, Eq. (5), from literature basic pKa; for Ionized fraction fanion: pH 7.4, Eq. (6), from literature acidic pKa
[2] = cited from earlier work
[3] = ref [1]; cited from earlier work
[4] = marketed drugs; ref [1],[7]; cited from earlier work
[5] = format: in vivo, CD-1 mice; conditions: CD-1, mouse, brain and plasma, intraperitoneal
[6] = Equilibrium dialysis, unbound fraction in plasma; format: in vitro ADME, CD-1 mice; conditions: CD-1, mouse, pH 7.4
[7] = Equilibrium dialysis, unbound fraction in brain homogenate; format: in vitro ADME, CD-1 mice; conditions: CD-1, mouse, brain homogenate (10 % w/v), pH 7.4
[8] = marketed drugs, external validation, ref [1],[7]

Compound	Ionized fraction fcation [1]	Kp,brain ([2]; mouse, in vivo)	Kp,uu,brain ([2]; mouse, in vivo)	fu,b [4]	Basic_pKa [3]	other results
O=C1CC2(CCCC2)CC(=O)N1CCCCN1CCN(c2ncccn2)CC1 [Buspirone]	0.5573					
NC(=O)N1c2ccccc2C=Cc2ccccc21 [Carbamazepine]		0.76	0.27			Ionized fraction fanion [1]: 0.0003; Acidic_pKa [3]: 10.9
CCCC(C)(COC(N)=O)COC(=O)NC(C)C (stereo not shown) [Carisoprodol]				0.202		Ionized fraction fanion [1]: 0.0003; Kp,brain [2, 8]: 0.66; Kp,uu,brain [2, 8]: 0.34; Acidic_pKa [3]: 11.0
CN(C)CCCN1c2ccccc2Sc2ccc(Cl)cc21 [Chlorpromazine]	0.9901					Kp,brain [2, 8]: 23.0; Kp,uu,brain [2, 8]: 0.65
CN(C)CCCC1(c2ccc(F)cc2)OCc2cc(C#N)ccc21 (stereo not shown) [Citalopram]	0.9937	5.10	0.68	0.031	9.6	
CN1CCN(C2=Nc3cc(Cl)ccc3Nc3ccccc32)CC1 [Clozapine]	0.3339			0.009		Kp,brain [2, 8]: 4.10; Kp,uu,brain [2, 8]: 1.01
CN(C)CCC=C1c2ccccc2C=Cc2ccccc21 [Cyclobenzaprine]	0.9844	12.0	1.62	0.007	9.2	
CNCCC(Oc1ccc(C(F)(F)F)cc1)c1ccccc1 (stereo not shown) [Fluoxetine]	0.9980					Kp,brain [2, 8]: 12.0; Kp,uu,brain [2, 8]: 0.89
COCCCC/C(=N\OCCN)c1ccc(C(F)(F)F)cc1 [Fluvoxamine]	0.9901					
O=C(CCCN1CCC(O)(c2ccc(Cl)cc2)CC1)c1ccc(F)cc1 [Haloperidol]	0.8882			0.007		Kp,brain [2, 8]: 13.0; Kp,uu,brain [2, 8]: 1.06
COc1ccc2c3c1O[C@H]1C(=O)CC[C@H]4[C@@H](C2)N(C)CC[C@]314 [Hydrocodone]	0.9264	2.10	1.96	0.550	8.5	
OCCOCCN1CCN(C(c2ccccc2)c2ccc(Cl)cc2)CC1 (stereo not shown) [Hydroxyzine]	0.3339	7.70	1.51	0.010	7.1	
Nc1nnc(-c2cccc(Cl)c2Cl)c(N)n1 [Lamotrigine]		1.10	0.64	0.220		
CCCC(C)(COC(N)=O)COC(N)=O [Meprobamate]				0.760		Ionized fraction fanion [1]: 0.0001; Kp,uu,brain [2, 8]: 0.42; Acidic_pKa [3]: 11.3
COC(=O)C(c1ccccc1)C1CCCCN1 (stereo not shown) [Methylphenidate]	0.9994	12.0	3.43	0.220	10.6	
CCN(CC)CCNC(=O)c1cc(Cl)c(N)cc1OC [Metoclopramide]	0.9937	1.20	0.52	0.310		Ionized fraction fanion [1]: 0.0001
Cc1ncc2n1-c1ccc(Cl)cc1C(c1ccccc1F)=NC2 [Midazolam]				0.027		Kp,uu,brain [2, 8]: 0.14

Compound	Ionized fraction fcation [1]	Kp,brain ([2]; mouse, in vivo)	Kp,uu,brain ([2]; mouse, in vivo)	fu,b [4]	Basic_pKa [3]	other results
CN1CC[C@]23c4c5ccc(O)c4O[C@H]2[C@@H](O)C=C[C@H]3[C@H]1C5 [Morphine]	0.8882					Ionized fraction fanion [1]: 0.0038
CNCCC=C1c2ccccc2CCc2ccccc21 [Nortriptyline]	0.9980	11.0	1.63	0.005	10.1	
Fc1ccc([C@@H]2CCNC[C@H]2COc2ccc3c(c2)OCO3)cc1 [Paroxetine]	0.9987	3.30	0.86	0.004		
CCOc1ccc(NC(C)=O)cc1 [Phenacetin]						Kp uu at 2 h [5]: 0.55; fraction unbound at 5 h, 1 μM [6]: 0.701; fraction unbound at 5 h, 1 μM [7]: 0.442
O=C1NC(=O)C(c2ccccc2)(c2ccccc2)N1 [Phenytoin]						Ionized fraction fanion [1]: 0.1118; Kp,brain [2, 8]: 0.63; Kp,uu,brain [2, 8]: 0.28; Acidic_pKa [3]: 8.30
CCC(=O)O[C@](Cc1ccccc1)(c1ccccc1)[C@H](C)CN(C)C [Propoxyphene]	0.9844	2.90	0.85	0.033		
CC(C)NCC(O)COc1cccc2ccccc12 (stereo not shown) [Propranolol]						Kp uu at 2 h [5]: 3.08; fraction unbound at 5 h, 1 μM [7]: 0.022
C=C[C@H]1C[N@@]2CC[C@H]1C[C@@H]2[C@@H](O)c1ccnc2ccc(OC)cc12 [Quinidine]						Kp uu at 2 h [5]: 0.05; fraction unbound at 5 h, 1 μM [6]: 0.286
Cc1nc2n(c(=O)c1CCN1CCC(c3noc4cc(F)ccc34)CC1)CCCC2 [Risperidone]	0.9091				8.4	Kp,uu,brain [2, 8]: 0.26
C#CCN(C)[C@H](C)Cc1ccccc1 [Selegiline]	0.5573	3.70	1.30	0.056	7.5	
CN[C@H]1CC[C@@H](c2ccc(Cl)c(Cl)c2)c2ccccc21 [Sertraline]	0.9921				9.5	
CCN1CCCC1CNC(=O)c1cc(S(N)(=O)=O)ccc1OC (stereo not shown) [Sulpiride]	0.9693	0.08	0.06		8.9	Ionized fraction fanion [1]: 0.0017; Acidic_pKa [3]: 10.2
CCCC(C)C1(CC)C(=O)NC(=S)NC1=O (stereo not shown) [Thiopental]				0.146		Ionized fraction fanion [1]: 0.2847; Acidic_pKa [3]: 7.80
O=c1n(CCCN2CCN(c3cccc(Cl)c3)CC2)nc2ccccn12 [Trazodone]	0.3869		0.56	0.047	7.2	Kp,brain [2, 8]: 0.61
COc1ccc(C(CN(C)C)C2(O)CCCCC2)cc1 (stereo not shown) [Venlafaxine]	0.9876			0.210	9.3	Kp,brain [2, 8]: 4.20; Kp,uu,brain [2, 8]: 0.98
CC(=O)CC(c1ccccc1)c1c(O)c2ccccc2oc1=O (stereo not shown) [Warfarin]						Kp uu at 2 h [5]: 0.19; fraction unbound at 5 h, 1 μM [6]: 0.097; fraction unbound at 5 h, 1 μM [7]: 0.281
Cc1ccc(-c2nc3ccc(C)cn3c2CC(=O)N(C)C)cc1 [Zolpidem]	0.2403	0.29	0.24	0.200	6.9	
